US7312248B2, “Control of parasites in animals by the use of novel trifluoromethanesulfonanilide oxime ether derivatives” (Schering-Plough Animal Health Corporation, priority 2004, dated 2007)
Read-outs that look alike come from different tables or passages of the source.

System: cat flea (Ctenocephalides felis)
Test: whole plant or invertebrate
Format: in vivo
Settings: for mortality at 1.26 µg/cm2, 1.26 µg/cm2 / mortality at 1.26 µg/cm2: Ctenocephalides felis
Procedure: b) Ctenocephalides felis Adulticide Assay: C. felis Single Dose Screen
Mortality of fleas was the primary endpoint in the assay. Fleas were considered dead if they didn't move or were on their sides and unable to walk or right themselves. […] The concentration chosen (1.26 μg/cm^2) was higher than that known to kill 90% of cat fleas (LC90) using the reference compound, permethrin.
The test species was the cat flea (Ctenocephalides felis). The strain used was obtained from external suppliers as pupae and held in the laboratory under testing conditions until the adults had emerged. Fifteen (15) fleas were used in a minimum of four replicates against a single concentration level (approximately 60 fleas). The insects were selected to be in the adult life stage, aged between 3 and 7 days post emergence.
The compounds to be tested were supplied as solids and were prepared in acetone as described below prior to testing. Samples were stored in a refrigerator (5±1° C.) unless otherwise specified.
During the mortality testing, the temperature was maintained at 25±1° C. Humidity was maintained at 75±5%. The base (area=159 mm^2) of a 100 mL glass Erlenmeyer (conical) flask provided the treatment surface. Flasks were pretreated with Coatasil™ glass treatment to maximise bio-availability of test compounds by preventing them from binding to glass the surface. The base of the 100 mL Erlenmeyer flask was treated with 0.5 mL of test sample in acetone and gently swirled. This volume was sufficient to cover the base of the flask. Flasks were left to dry for 24 hours before flea exposure.
Adult cat fleas were placed into a sorting chamber, which allowed fleas to jump into the Erlenmeyer flasks. Fifteen (15) adult cat fleas were collected in each flask. The top of the flasks were then covered in Parafilm™ and small holes were made to allow gas exchange. A 0.5 mL volume of acetone as a solvent control was applied to the base of an Erlenmeyer flask and the testing proceeded in the same manner described above. Cat fleas in the treatment containers were held under testing conditions for 8, 24 and/or 48 hours. Mortality was recorded at 8, 24, 8 and 24, or 24 and 48 hours. Pooled 8, 24, 8 and 24, and 24 and 48 hour mortality data were converted to percentages and are summarized by Tables 14, 14A and 14B, below.

[1] = 24 h, read-out: C. felis Mortality (%) 24 h, 24 h, Laboratory 2 B data
[2] = 48 h, read-out: C. felis Mortality (%) 48 h, 48 h, Laboratory 2 B data
[3] = 24 h, read-out: C. felis Mortality (%) 24 h, 24 h, Laboratory 1 A data
[4] = 8 h, read-out: Ctenocephalides felis Mortality (%) 8 h
[5] = 24 h, read-out: Ctenocephalides felis Mortality (%) 24 h

Structure (SMILES) | mortality at 1.26 µg/cm2, 1.26 µg/cm2 [3] [%] | also measured
CC/C(=N\OCC=C(C)C)c1cc(Cl)ccc1NS(=O)(=O)C(F)(F)F [Compound 250] | – | mortality at 1.26 µg/cm2, 1.26 µg/cm2 [1]: 97%; mortality at 1.26 µg/cm2, 1.26 µg/cm2 [2]: 100%
CC/C(=N\OC(C)C)c1cc(Cl)ccc1NS(=O)(=O)C(F)(F)F [Compound 154] | 100 | –
CC/C(=N\Oc1ccc(C(F)(F)F)cc1)c1cc(Cl)ccc1NS(=O)(=O)C(F)(F)F [Compound 145] | 9 | –
O=S(=O)(Nc1ccc(Cl)cc1/C(=N/OC1CCCC1)c1ccccc1)C(F)(F)F [Compound 162] | 14 | –
C/C(=N\OCC=C(Cl)Cl)c1ccccc1NS(=O)(=O)C(F)(F)F [Compound 25] | 100 | –
C/C(=N\Oc1ccccc1C)c1cc(Cl)ccc1NS(=O)(=O)C(F)(F)F [Compound 149] | 17 | –
CC/C(=N\OCC#N)c1cc(Cl)ccc1NS(=O)(=O)C(F)(F)F [Compound 153] | 77 | –
C/C(=N\OC1CCCC1)c1ccc(C(F)(F)F)cc1NS(=O)(=O)C(F)(F)F [Compound 239] | – | mortality at 1.26 µg/cm2, 1.26 µg/cm2 [1]: 86%; mortality at 1.26 µg/cm2, 1.26 µg/cm2 [2]: 100%
C/C(=N\Oc1ccc(F)c(F)c1)c1cc(Cl)ccc1NS(=O)(=O)C(F)(F)F [Compound 147] | 4 | –
CC/C(=N\Oc1ccc(F)c(F)c1)c1cc(Cl)ccc1NS(=O)(=O)C(F)(F)F [Compound 148] | 38 | –
O=S(=O)(Nc1ccc(Cl)cc1-c1cc(C2CCCCC2)on1)C(F)(F)F [Compound 292] | – | mortality at 1.26 µg/cm2 [4]: 15%; mortality at 1.26 µg/cm2 [5]: 92%
O=S(=O)(Nc1ccc(Cl)cc1/C(=N/OCC1CCCCC1)c1ccccc1)C(F)(F)F [Compound 180] | 8 | –
C/C(=N\OCC#N)c1cc(Cl)ccc1NS(=O)(=O)C(F)(F)F [Compound 160] | 42 | –
CCO/N=C(\CC)c1cc(Cl)ccc1NS(=O)(=O)C(F)(F)F [Compound 37] | 29 | –
O=S(=O)(Nc1ccc(Cl)cc1-c1noc2c1CCCC2)C(F)(F)F [Compound 294] | – | mortality at 1.26 µg/cm2 [4]: 3%; mortality at 1.26 µg/cm2 [5]: 40%
CC/C(=N\OC(CC)c1ccccc1)c1cc(Cl)ccc1NS(=O)(=O)C(F)(F)F (stereo not shown) [Compound 256] | – | mortality at 1.26 µg/cm2, 1.26 µg/cm2 (8 h, read-out: C. felis Mortality (%) 8 h, 8 h, Laboratory 2 B data): 0%; mortality at 1.26 µg/cm2, 1.26 µg/cm2 [1]: 84%
CCO/N=C(\C)c1cc(Br)ccc1NS(=O)(=O)C(F)(F)F [Compound 53] | 100 | –
C/C(=N\Oc1ccc(F)c(Cl)c1)c1cc(Cl)ccc1NS(=O)(=O)C(F)(F)F [Compound 144] | 15 | –
C/C(=N\Oc1ccc(C(F)(F)F)cc1)c1cc(Cl)ccc1NS(=O)(=O)C(F)(F)F [Compound 143] | 7 | –
CCOC(=O)N(c1ccc(Cl)cc1/C(CC)=N/OCc1ccc(Cl)cc1)S(=O)(=O)C(F)(F)F [Compound 306] | – | mortality at 1.26 µg/cm2 (24 h, single concentration 1.26 μg/cm^2 on treated glass, adult fleas, Laboratory 2 B data, read-out: Ctenocephalides felis Mortality (%) 24 h): 0%; mortality at 1.26 µg/cm2 (48 h, single concentration 1.26 μg/cm^2 on treated glass, adult fleas, Laboratory 2 B data, read-out: Ctenocephalides felis Mortality (%) 48 h): 48%
CCCC(=O)OCN(c1ccc(Cl)cc1/C(CC)=N/Oc1ccc(Cl)cc1)S(=O)(=O)C(F)(F)F [Compound 309] | – | mortality at 1.26 µg/cm2 [4]: 3%; mortality at 1.26 µg/cm2 [5]: 86%
O=S(=O)(Nc1ccc(Cl)cc1/C(=N/Oc1ccc(Cl)cc1)C1CCCCC1)C(F)(F)F [Compound 167] | 3 | –
CO/N=C(\c1ccccc1)c1cc(Cl)ccc1NS(=O)(=O)C(F)(F)F [Compound 232] | – | C. felis Mortality (%) 24 h (24 h, Laboratory 2 B data): 96^B %; mortality at 1.26 µg/cm2, 1.26 µg/cm2 [2]: 100%
C/C(=N\Oc1ccc(OC(F)(F)F)cc1)c1cc(Cl)ccc1NS(=O)(=O)C(F)(F)F [Compound 151] | 62 | –
O=S(=O)(Nc1ccc(Cl)cc1/C(=N/Oc1ccc(Cl)cc1)c1ccccc1)C(F)(F)F [Compound 164, N-{4-chloro-2-[(4-chlorophenoxyimino)phenylmethyl]phenyl}trifluoromethanesulfonamide] | 19 | –
C/C(=N\OCC1CCCCC1)c1cc(Cl)ccc1NS(=O)(=O)C(F)(F)F [Compound 173] | 96 | –
